According to patent US20080166323A1, “Activators of Hexosamine Biosynthesis as Inhibitors of Injury Induced by Ischemia or Hermorrhagic Shock” (UAB RESEARCH FOUNDATION, priority 2004, published 2008):

How the values were obtained:
[1] = tested on: rat model of trauma-hemorrhage and resuscitation; assay: trauma/hemorrhage mimicking the field, Example 2 (glucosamine only during resuscitation); assay type: in vivo
Method: The following experiments were conducted using a model of soft tissue trauma-hemorrhage (T-H) as described in Ba, et al., Crit. Care Med (2000) 28(8):2837-2842; Chaudry, et al., Can J Physiol Pharmacol (1975) 53(5):859-865; Ma, et al., Am J Physiol Gastrointest Liver Physiol (2003) 284(1):G107-G115; and Harkema and Chaudry, Crit. Care Med (1992) 20(2):263-275. Male rats were fasted for 16 h and divided into three groups: (1) sham (trauma only); (2) T-H (trauma with subsequent hemorrhage and resuscitation); and (3) G-T-H (trauma with subsequent hemorrhage and resuscitation in the presence of glucosamine). All groups underwent a 5 cm ventral midline laparotomy to induce soft-tissue trauma and were cannulated in both femoral arteries and the right femoral vein. The T-H and G-T-H groups received an infusion of 3 mls over 30 minutes of Ringer's lactate (RL) containing, in the G-T-H group only, 10 mM glucosamine. These two groups were then bled to a mean arterial pressure of 40 mm Hg within 10 minutes and maintained at that pressure for 80 minutes. The T-H group was then infused with 1 ml RL over 10 minutes, while in the G-T-H group the infusate contained an iso-osmotic solution of 75 mM glucosamine (pH 7.4) in 50% RL. The two groups were then resuscitated with four times the maximum hemorrhage volume over a period of 60 minutes with RL (T-H) or RL containing 10 mM glucosamine (G-T-H). Sham-operated animals underwent the same surgical procedure but were neither bled nor resuscitated. Two hours post-resuscitation, a catheter was inserted into the left ventricle via the right carotid artery. Organ blood flows were determined using radioactive microspheres. Cardiac function and blood parameters were also assessed. The data for these experiments are shown in Tables 1 and 2 (values are mean ±standard error of the mean).
A second experiment was performed in order to mimic a trauma/hemorrhage in the field. There were no treatments in any of the three groups prior to trauma/hemorrhage. The T-H and G-T-H groups were partially resuscitated identically with two times the maximum hemorrhage volume over a period of 30 minutes. In the G-T-H group, a 1 ml bolus containing an iso-osmotic solution of 75 mM glucosamine (pH 7.4) in 50% RL was administered, while in the T-H group this bolus contained only RL. This was then followed with two times the maximum hemorrhage volume over a period of 30 minutes with RL (T-H) or RL containing 10 mM glucosamine (G-T-H). Sham-operated animals underwent the same surgical procedure but were neither bled nor resuscitated. The data for this experiment are shown in Tables 3 and 4 (values are mean ±standard error of the mean).

[2] = tested on: UDP-GlcNAc; assay: UDP-GlcNAc pools in isolated hearts; conditions: 5 mM
Method: In the experiments above with isolated hearts, glucosamine was protective after only a ten minute pre-incubation. While not wishing to be bound by theory, the mechanism believed to be responsible for the protection is an increase in concentration of an intracellular metabolite of the HBP, which results in an increase in protein-associated O-GlcNAc. […] Increases at ten minutes were 47%. With respect to the second point, experiments were performed in which a monoclonal antibody specific for O-GlcNAc on proteins (CTD110) (Corner, et al, Anal Biochem (2001) 293(2):169-177) was used in an immunoblotting protocol. The specificity of this antibody for O-GlcNAc-containing epitopes is verified in each experiment by the inclusion of 10 mM GlcNAc along with the CTD110 antibody on parallel samples. These samples show no staining (data not shown). CTD110 immunoblots were performed on extracts from isolated hearts following a ten-minute perfusion with buffer or buffer containing 5 mM glucosamine (FIG. 8). […] Intriguingly, one group of newly appearing proteins has molecular masses near 70 kDa and another around 90 kDa. […] Another family of heat shock proteins, HSP-90, has a molecular mass near 90 kDa (Nollen and Morimoto, J Cell Sci (2002) 115(Pt 14):2809-2816). Thus, O-GlcNAc bearing proteins appear to be responsible for the protection.

[3] = rat, G-T-H (n = 8), 2 h after T-H and resuscitation, Example 2, mean ± SEM
[4] = rat, G-T-H (n = 8), 2 h after T-H, glucosamine only during resuscitation, mean ± SEM

Structure (SMILES): N[C@H]1C(O)O[C@H](CO)[C@@H](O)[C@@H]1O (stereo partly drawn) [glucosamine]
- protection in trauma/hemorrhage ([1]; glucosamine only during resuscitation, Example 2): remarkably protective
- Regional Blood Flow: Brain [1, 3]: 151.58 ± 13.97 ml/min/100 g tissue
- Regional Blood Flow: Cardiac [1, 3]: 933.65 ± 114.73 ml/min/100 g tissue
- Regional Blood Flow: Cecum [1, 3]: 86.39 ± 10.70 ml/min/100 g tissue
- Regional Blood Flow: Gastric [1, 3]: 71.08 ± 6.84 ml/min/100 g tissue
- Regional Blood Flow: Hepatic Artery [1, 3]: 45.10 ± 6.58 ml/min/100 g tissue
- Regional Blood Flow: Large Intestine [1, 3]: 96.83 ± 6.90 ml/min/100 g tissue
- Regional Blood Flow: Lung [1, 3]: 29.71 ± 4.87 ml/min/100 g tissue
- Regional Blood Flow: Mesenteric [1, 3]: 43.12 ± 9.56 ml/min/100 g tissue
- Regional Blood Flow: Muscle [1, 3]: 32.97 ± 5.00 ml/min/100 g tissue
- Regional Blood Flow: Pancreatic [1, 3]: 52.08 ± 5.53 ml/min/100 g tissue
- Regional Blood Flow: Portal Vein [1, 3]: 211.57 ± 23.79 ml/min/100 g tissue
- Regional Blood Flow: Renal [1, 3]: 472.07 ± 49.40 ml/min/100 g tissue
- Regional Blood Flow: Skin [1, 3]: 11.65 ± 1.25 ml/min/100 g tissue
- Regional Blood Flow: Small Intestine [1, 3]: 233.60 ± 27.07 ml/min/100 g tissue
- Regional Blood Flow: Splenic [1, 3]: 54.77 ± 4.44 ml/min/100 g tissue
- Regional Blood Flow: Thymus [1, 3]: 40.70 ± 4.96 ml/min/100 g tissue
- Regional Blood Flow: Total Hepatic [1, 3]: 256.67 ± 27.12 ml/min/100 g tissue
- +dp/dt [1, 4]: 13656 ± 7786 mm Hg/sec
- Cardiac Output [1, 4]: 33.49 ± 2.12 ml/min 100 g body wt
- Heart Rate [1, 4]: 394.50 ± 13.13 beat/minute
- Mean Arterial Pressure [1, 4]: 97.88 ± 4.19 mm Hg
- Oxygen Consumption [1, 4]: 0.93 ± 0.23 ml/min 100 g body wt
- Oxygen Delivery [1, 4]: 2.52 ± 0.17 ml/min 100 g body wt
- Oxygen Extraction [1, 4]: 34.48 ± 7.45%
- Stroke volume [1, 4]: 84.95 ± 4.66 μl/beat/100 g body wt
- Total Peripheral Resistance [1, 4]: 3.05 ± 0.31 mm Hg/ml/min/100 g body wt
- −dp/dt [1, 4]: 8549 ± 549 mm Hg/sec
- increase in UDP-GlcNAc pools ([2]; 30 minute incubation): about 75%
- increase in UDP-GlcNAc pools ([2]; ten minutes): 47%
